“And” between values parts separate entries of the source, which are not always exact repeats. Identical values can stand only once. Like-named read-outs stand apart in the source and are kept apart here.
Target: T1, LIN28A(16–187)–let-7 interaction (Homo sapiens, UniProt Q9H9Z2)
T1 construct: LIN28A(16–187) or LIN28B(24–111); pET19a or pMAL vector) (cleaved yes); made in house; host or cells: Escherichia coli BL21(DE3)
T1 sequence (Q9H9Z2 16-187): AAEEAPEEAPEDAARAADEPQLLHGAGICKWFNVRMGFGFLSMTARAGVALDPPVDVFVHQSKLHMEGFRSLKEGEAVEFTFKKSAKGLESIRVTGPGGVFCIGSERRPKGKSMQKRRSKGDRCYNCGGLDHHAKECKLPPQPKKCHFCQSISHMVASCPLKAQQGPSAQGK
Assay: Electrophoretic mobility shift assay (EMSA), disruption of LIN28–let-7 complex
Type: binding
Details: for IC50: concentration-dependent EMSA, some values estimated, read-out: IC50 in dose–response EMSA; for inhibition at 75 µM: read-out: inhibition of the LIN28–let-7 interaction measured in EMSA
Description: Inhibition of the LIN28–let-7 complex was evaluated by electrophoretic mobility shift assays. Mixtures containing compound at indicated concentrations, LIN28A(16–187) or LIN28B(24–111), and recombinant ribonuclease inhibitor (TaKaRa Bio) were incubated at room temperature for 2 h. The reaction buffer contained 50 mM TRIS, pH 7.5, 100 mM NaCl, 10 mM β-mercaptoethanol, 50 μM ZnCl2, 2% DMSO, 0.01% Tween-20 and 12% glycerol. Cy-3-fluorophore labeled RNA, (pre-E let-7f-1-Cy3, Mus musculus, […]-Cy3, purchased from IDT) was added to the reaction and incubated for further 15 min. The final concentrations were as follows: 10 nM LIN28A or 200 nM LIN28B, 5 nM RNA. Of each mixture, 10 μL was analyzed on a nondenaturing PAGE (5.3% acrylamide TAE PAGE for full-length LIN28 and 10% acrylamide TAE PAGE for analysis of the CSD) prerun for 1 h without sample and run for 1 h at 220 V at 4 °C in 0.25× TAE buffer. Gels were imaged using a ChemiDoc MP instrument (Bio-Rad Laboratories). Band intensities were analyzed using ImageJ and inhibition was quantified by calculation of the ratio of free RNA fluorescence to the fluorescence of the protein–RNA complex, and normalization to free RNA and LIN28–let-7 complex controls. The intensity ratio was analyzed by nonlinear regression fit in GraphPad Prism to determine the IC50 values.

[1] = single concentration of 75 μM, 75 µM

Compound	inhibition of the LIN28–let-7 interaction measured in EMSA (single concentration of 75 μM)	inhibition at 75 µM (single concentration of 75 μM) [%]	also measured
O=C(C1=C(O)C(=O)N(c2ccc(O)c(C(=O)O)c2)C1c1ccc([N+](=O)[O-])cc1)c1ccccc1 (centres unmarked) [Compound 2]	not active		
Cc1ccc(C(=O)C2=C(O)C(=O)N(c3ccc(O)c(C(=O)O)c3)C2c2ccc([N+](=O)[O-])cc2)cc1 (centres unmarked) [Compound 3]		≥ 60	IC50: 33 µM
O=C(C1=C(O)C(=O)N(c2ccc(O)c(C(=O)O)c2)C1c1ccc([N+](=O)[O-])cc1)c1ccccn1 (centres unmarked) [Compound 4]			IC50: 19 µM and ~19 µM
O=C(O)c1cc(N2C(=O)C(O)=C(c3nccs3)C2c2ccc([N+](=O)[O-])cc2)ccc1O (centres unmarked) [Compound 5]	active	≥ 60	IC50: 32 µM
O=C(C1=C(O)C(=O)N(c2ccc(O)c(C(=O)O)c2)C1c1ccc2[nH]nnc2c1)c1ccccc1 (centres unmarked) [Compound 6]		95.4	IC50: 20 µM and ~20 µM
O=C(C1=C(O)C(=O)N(c2ccc(O)c(C(=O)O)c2)C1c1ccc2cn[nH]c2c1)c1ccccc1 (centres unmarked) [Compound 7]		70.7	IC50: 34 µM
O=C(C1=C(O)C(=O)N(c2ccc(O)c(C(=O)O)c2)C1c1ccc2cnccc2c1)c1ccccc1 (centres unmarked) [Compound 9]		99.9	IC50: < 15 µM and ~5 µM
Nc1ccc(C2C(C(=O)c3ccccc3)=C(O)C(=O)N2c2ccc(O)c(C(=O)O)c2)cc1 (centres unmarked) [Compound 10]		84.1	IC50: < 15 µM and 5 to 15 µM
O=C(C1=C(O)C(=O)N(CCCc2ccccc2)C1c1ccc([N+](=O)[O-])cc1)c1ccccc1 (centres unmarked) [Compound 12]		76.5	IC50: < 15 µM and 5 to 15 µM; inhibition of the LIN28–let-7 interaction measured in EMSA [1]: 77%
COc1ccc(CN/C(=C2\C(=O)C(=O)N(c3ccc(O)c(C(=O)O)c3)C2c2ccc([N+](=O)[O-])cc2)c2ccccc2)cc1 (centres unmarked) [Compound 13]	active	102	IC50: 26 µM
O=C(O)c1cc(N2C(=O)c3nn(Cc4ccccc4)c(-c4ccccc4)c3C2c2ccc([N+](=O)[O-])cc2)ccc1O (centres unmarked) [Compound 14]	inactive		
O=C(O)c1cc(N2C(=O)c3c(c(-c4ccccc4)nn3Cc3ccccc3)C2c2ccc([N+](=O)[O-])cc2)ccc1O (centres unmarked) [Compound 15]	inactive		
O=C(C1=C(O)C(=O)N(c2ccc(O)c(C(=O)O)c2)[C@@H]1c1ccc([N+](=O)[O-])cc1)c1ccc(Cl)cc1 [Compound 16]	none of these aforementioned enantiomerically pure molecules were active		
O=C(C1=C(O)C(=O)N(c2ccc(O)c(C(=O)O)c2)[C@H]1c1ccc([N+](=O)[O-])cc1)c1ccc(Cl)cc1 [Compound 17]	none of these aforementioned enantiomerically pure molecules were active		
O=C(O)c1cc(N2C(=O)C(O)=C(Cc3ccccc3)[C@@H]2c2ccc([N+](=O)[O-])cc2)ccc1O [Compound 18]	none of these aforementioned enantiomerically pure molecules were active		
O=C(O)c1cc(N2C(=O)C(O)=C(Cc3ccccc3)[C@H]2c2ccc([N+](=O)[O-])cc2)ccc1O [Compound 19]	none of these aforementioned enantiomerically pure molecules were active		
O=C(C1=C(O)C(=O)N(c2cccc([N+](=O)[O-])c2)[C@H]1c1ccc([N+](=O)[O-])cc1)c1ccccc1 [Compound 20]	none of these aforementioned enantiomerically pure molecules were active		
O=C(C1=C(O)C(=O)N(c2cccc([N+](=O)[O-])c2)[C@@H]1c1ccc([N+](=O)[O-])cc1)c1ccccc1 [Compound 21]	none of these aforementioned enantiomerically pure molecules were active		
NC1=C(C(=O)c2ccccc2)[C@@H](c2ccc([N+](=O)[O-])cc2)N(c2ccc(O)c(C(=O)O)c2)C1=O [Compound 22]	inactive		inhibition of the LIN28–let-7 interaction measured in EMSA [1]: none of these aforementioned enantiomerically pure molecules were active

Compound	inhibition of the LIN28–let-7 interaction measured in EMSA (single concentration of 75 μM)	inhibition at 75 µM (single concentration of 75 μM) [%]	also measured
N=C1CC=CC=C1C1=C(N)C(=O)N(c2ccc(O)c(C(=O)O)c2)[C@@H]1c1ccc([N+](=O)[O-])cc1 [Compound 23]	inactive		inhibition of the LIN28–let-7 interaction measured in EMSA [1]: none of these aforementioned enantiomerically pure molecules were active
O=C(C1=C(O)C(=O)N(c2cccc(-c3ccccc3)c2)C1c1ccc([N+](=O)[O-])cc1)C1CCCCC1 (centres unmarked) [Compound 24]		49	
O=C(C1=C(O)C(=O)N(c2cccc(-c3ccccc3)c2)C1c1ccc([N+](=O)[O-])cc1)C1CCC1 (centres unmarked) [Compound 26]		8	
O=C(C1=C(O)C(=O)N(c2cccc(-c3ccccc3)c2)C1c1ccc([N+](=O)[O-])cc1)c1ccc(Br)cc1 (centres unmarked) [Compound 30]		73	
COc1ccc(C(=O)C2=C(O)C(=O)N(c3cccc(-c4ccccc4)c3)C2c2ccc([N+](=O)[O-])cc2)cc1 (centres unmarked) [Compound 31]		87	
O=C(C1=C(O)C(=O)N(c2cccc(-c3ccccc3)c2)C1c1ccc([N+](=O)[O-])cc1)c1ccc(F)cc1 (centres unmarked) [Compound 32]		76	
O=C(C1=C(O)C(=O)N(c2cccc(-c3ccccc3)c2)C1c1ccc([N+](=O)[O-])cc1)c1ccccc1F (centres unmarked) [Compound 33]		98	
O=C(C1=C(O)C(=O)N(c2cccc(-c3ccccc3)c2)C1c1ccc([N+](=O)[O-])cc1)c1ccc([N+](=O)[O-])c(O)c1 (centres unmarked) [Compound 34]			inhibition at 75 µM: 49%
O=C(C1=C(O)C(=O)N(c2cccc(-c3ccccc3)c2)C1c1ccc([N+](=O)[O-])cc1)c1ccco1 (centres unmarked) [Compound 35]		87	IC50: ~45 µM
Cc1ccc(C(=O)C2=C(O)C(=O)N(c3cccc(-c4ccccc4)c3)C2c2ccc([N+](=O)[O-])cc2)o1 (centres unmarked) [Compound 36]		83	
Cn1cccc1C(=O)C1=C(O)C(=O)N(c2cccc(-c3ccccc3)c2)C1c1ccc([N+](=O)[O-])cc1 (centres unmarked) [Compound 37]		75	
O=C(C1=C(O)C(=O)N(c2cccc(-c3ccccc3)c2)C1c1ccc([N+](=O)[O-])cc1)c1nccs1 (centres unmarked) [Compound 38]		8	
O=C(C1=C(O)C(=O)N(c2cccc(-c3ccccc3)c2)C1c1ccc([N+](=O)[O-])cc1)c1ccc(C(F)(F)F)cc1 (centres unmarked) [Compound 39]		40	
O=C(C1=C(O)C(=O)N(c2ccc3oc4ccccc4c3c2)C1c1ccc([N+](=O)[O-])cc1)c1ccccc1 (centres unmarked) [Compound 40]		94	
O=C(C1=C(O)C(=O)N(c2ccc3oc4ccccc4c3c2)C1c1ccc([N+](=O)[O-])cc1)c1ccc(Br)cc1 (centres unmarked) [Compound 41]		53	
COc1ccc(C(=O)C2=C(O)C(=O)N(c3ccc4oc5ccccc5c4c3)C2c2ccc([N+](=O)[O-])cc2)cc1 (centres unmarked) [Compound 42]		74	
O=C(C1=C(O)C(=O)N(c2ccc3oc4ccccc4c3c2)C1c1ccc([N+](=O)[O-])cc1)c1ccc(F)cc1 (centres unmarked) [Compound 43]		60	
O=C(C1=C(O)C(=O)N(c2ccc3oc4ccccc4c3c2)C1c1ccc([N+](=O)[O-])cc1)c1ccco1 (centres unmarked) [Compound 44]		90	
O=C(C1=C(O)C(=O)N(c2ccc3c(c2)oc2ccccc23)C1c1ccc([N+](=O)[O-])cc1)c1ccccc1 (centres unmarked) [Compound 45]		97	inhibition of LIN28–let-7 complex formation in concentration-dependent EMSA (in words) (dose–response EMSA): best inhibitory activities among the evaluated molecules
